The target of data set [1] is Epidermal growth factor receptor (Homo sapiens, UniProt P00533).
Data set [2] in a line: Solubility in aqueous buffer at pH 7.4. The data set is classed as physicochemical.
Data set [3] can be described thus: AUC in rat at 10 mg/kg. The arrangement: dose 10 mg/kg. Particulars: plasma. The data set is classed as ADME, organism-based.
Data set [4] is described as follows: Metabolic stability to human liver microsomes assessed as half life. It counts as ADME, Microsome. A general note: Microsomes from liver hold many membrane-bound enzymes, among them those of drug oxidation.
Data set [5] is described as follows: Solubility in aqueous buffer at pH 2.0. It counts as physicochemical.
Data set [6] in a line: Oral bioavailability in rat at 10 mg/kg. It counts as ADME, organism-based. Particulars: in vivo.
Data set [7] can be described thus: Cmax in rat at 10 mg/kg. It counts as ADME, organism-based. Also on record: dose 10 mg/kg. Particulars: in vivo.
The nature of data set [8]: Half life in rat at 10 mg/kg. It counts as ADME, organism-based. The arrangement: dose 10 mg/kg. The following applies: in vivo.
Data set [9] is described as follows: AUC in mouse at 10 mg/kg. It counts as ADME, organism-based. The arrangement: dose 10 mg/kg. Particulars: plasma.
Data set [10] can be described thus: Cmax in mouse at 10 mg/kg. The data set is classed as ADME, organism-based. Also on record: dose 10 mg/kg. Particulars: in vivo.
A short description of data set [11]: Half life in mouse at 10 mg/kg. The following applies: in vivo. The data set is classed as ADME, organism-based. Also on record: dose 10 mg/kg.
A short description of data set [12]: Oral bioavailability in mouse at 10 mg/kg. It counts as ADME, organism-based. Particulars: in vivo, read-out: ED15.
In data set [13] the target is Cyclin-dependent kinase 1 (Homo sapiens, UniProt P06493). The data set can be described thus: Inhibition of CDK1.
Cyclin-dependent kinase 1, sequence (P06493 whole entry): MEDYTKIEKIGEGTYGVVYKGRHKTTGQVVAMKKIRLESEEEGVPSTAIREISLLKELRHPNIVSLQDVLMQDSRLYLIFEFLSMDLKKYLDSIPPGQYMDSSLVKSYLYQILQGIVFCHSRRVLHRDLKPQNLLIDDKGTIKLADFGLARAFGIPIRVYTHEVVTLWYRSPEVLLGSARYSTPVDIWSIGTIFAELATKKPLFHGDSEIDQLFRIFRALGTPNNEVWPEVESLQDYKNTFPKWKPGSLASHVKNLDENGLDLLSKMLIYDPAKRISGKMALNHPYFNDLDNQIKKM

Molecules are shown by their SMILES. Converted amounts (≈) assume the structure as drawn. Where only a bound is given, the exact number is not on record here.

Consider 15 molecules from ChEMBL document CHEMBL1153982, “Synthesis and evaluation of 2,7-diamino-thiazolo[4,5-d] pyrimidine analogues as anti-tumor epidermal growth factor receptor (EGFR) tyrosine kinase inhibitors” (Bioorg Med Chem Lett, 2009).

Epidermal growth factor receptor, sequence (P00533 whole entry): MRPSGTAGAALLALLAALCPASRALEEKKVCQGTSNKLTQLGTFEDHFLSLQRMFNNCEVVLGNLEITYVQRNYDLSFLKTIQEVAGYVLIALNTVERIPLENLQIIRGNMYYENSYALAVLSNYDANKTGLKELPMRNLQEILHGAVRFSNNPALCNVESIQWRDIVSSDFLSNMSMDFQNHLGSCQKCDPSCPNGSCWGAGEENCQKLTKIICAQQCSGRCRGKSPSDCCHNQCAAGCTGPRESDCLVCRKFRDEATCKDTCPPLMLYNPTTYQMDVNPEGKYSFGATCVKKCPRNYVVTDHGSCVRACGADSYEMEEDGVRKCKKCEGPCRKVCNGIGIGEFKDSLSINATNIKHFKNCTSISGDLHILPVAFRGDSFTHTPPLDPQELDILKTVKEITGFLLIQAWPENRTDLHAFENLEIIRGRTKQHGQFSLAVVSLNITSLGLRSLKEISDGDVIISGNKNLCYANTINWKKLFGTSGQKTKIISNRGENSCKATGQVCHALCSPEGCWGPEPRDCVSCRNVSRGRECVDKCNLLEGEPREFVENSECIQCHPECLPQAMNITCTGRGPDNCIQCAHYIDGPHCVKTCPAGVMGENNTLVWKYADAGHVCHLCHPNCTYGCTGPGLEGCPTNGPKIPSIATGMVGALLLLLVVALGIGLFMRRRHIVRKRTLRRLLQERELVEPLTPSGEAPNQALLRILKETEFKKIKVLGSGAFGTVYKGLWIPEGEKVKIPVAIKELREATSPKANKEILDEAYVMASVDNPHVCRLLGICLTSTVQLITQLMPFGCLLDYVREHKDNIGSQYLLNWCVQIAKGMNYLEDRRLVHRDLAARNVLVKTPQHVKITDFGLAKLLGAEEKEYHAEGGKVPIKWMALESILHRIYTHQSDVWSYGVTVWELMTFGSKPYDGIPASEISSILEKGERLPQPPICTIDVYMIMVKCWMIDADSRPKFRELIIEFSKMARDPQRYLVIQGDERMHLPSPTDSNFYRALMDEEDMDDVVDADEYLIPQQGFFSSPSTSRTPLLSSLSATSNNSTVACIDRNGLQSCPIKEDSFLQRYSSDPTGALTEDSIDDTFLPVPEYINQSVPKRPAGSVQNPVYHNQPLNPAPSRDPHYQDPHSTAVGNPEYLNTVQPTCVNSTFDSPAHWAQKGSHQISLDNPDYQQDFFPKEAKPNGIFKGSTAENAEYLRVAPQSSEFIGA

As usually defined, the IC50 is the concentration needed to halve the response being measured. A higher IC50 goes with weaker potency in that assay. Molecule `NS(=O)(=O)c1ccc(Nc2nc3ncnc(Nc4cccc(Br)c4)c3s2)cc1` displayed an IC50 in data set [1] of 0.01 µM.
In data set [1], `NS(=O)(=O)c1ccc(Nc2nc3ncnc(Nc4ccc(N5CCOCC5)c(Cl)c4)c3s2)cc1` came in with an IC50 of 3.3 µM.
On the same count and under the same terms, in the case of `COCCN(CCOC)S(=O)(=O)c1ccc(Nc2nc3ncnc(Nc4ccc(F)c(Cl)c4)c3s2)cc1` it was 0.025 µM; in that of `Fc1ccc(Nc2ncnc3nc(Nc4ccc(CN5CCCCC5)cc4)sc23)cc1Cl`, 0.01 µM.
Usually solubility stands for how much of the substance goes into solution per volume. A low value points to little dissolved substance. What is called AUC is the area under the concentration-time curve, a measure of exposure. A low value points to low exposure. A word on the half-life: it is the time needed for the level to fall by half in the phase considered. For orientation: Cmax means the maximum level reached in the sampled fluid or tissue. `Fc1ccc(Nc2ncnc3nc(Nc4ccc(CCN5CCOCC5)cc4)sc23)cc1Cl`: the figures for the solubility in data set [2] and in data set [5] were below 0.2 µg/mL and 290 µg/mL (≈ 598 µM), respectively. The same molecule yielded an AUC in data set [3] of 1170 ng·h/mL. In addition, half-maximal inhibition in data set [1] (IC50) required 0.015 µM. Also, the half-life in data set [4] was 0.183 h; in data set [8] it was 1.8 h. This molecule also registered a bioavailability in data set [6] of 13%. Besides, in [7], the peak concentration (Cmax) came out at 289 ng/mL.
Turning to `Fc1ccc(Nc2ncnc3nc(Nc4ccc(CN5CCCC5)cc4)sc23)cc1Cl`, in data set [1], the 50% inhibitory concentration (IC50) was 0.004 µM.
On the same count and under the same terms, the figure for `C#Cc1cccc(Nc2ncnc3nc(Nc4ccc(CN5CCOCC5)cc4)sc23)c1` is 0.043 µM.
With `N#Cc1cnc2nc(Nc3ccc(CN4CCOCC4)cc3)sc2c1Nc1ccc(F)c(Cl)c1`, the solubility was below 0.2 µg/mL in [2] and 37 µg/mL (≈ 74.8 µM) in [5]. In addition, in data set [3], the AUC stood at 184 ng·h/mL. The half-life was 0.217 h in data set [4] and 4.9 h in data set [8]. This molecule also had a bioavailability in [6] of 10.8%. Further, in data set [7], the concentration peaked (Cmax) at 28 ng/mL.
For the molecule `CCc1nccn1Cc1ccc(Nc2nc3ncnc(Nc4ccc(F)c(Cl)c4)c3s2)cc1`, the solubility is below 0.2 µg/mL in data set [2] and 300 µg/mL (≈ 625 µM) in data set [5]. In [1], this molecule showed an IC50 of 0.006 µM. In data set [4], the half-life was determined as 0.05 h.
`CN1CCN(Cc2ccc(Nc3nc4ncnc(Nc5ccc(OCc6cccc(F)c6)c(Cl)c5)c4s3)cc2)CC1` had a half-maximal inhibitory concentration (IC50) in data set [1] of 0.009 µM. That is a single-digit nanomolar value.
Consider `Fc1ccc(Nc2ncnc3nc(Nc4ccc(CN5CCOCC5)cc4)sc23)cc1Cl`, for which the figures for the solubility in [2] and in [5] were 1 µg/mL (≈ 2.12 µM) and above 1000 µg/mL, respectively. In addition, the results for the exposure (AUC) in data set [9] and in [3] were 10800 ng·h/mL and 2150 ng·h/mL, respectively. Besides, the Cmax in [10] came out at 3850 ng/mL; in data set [7], 527 ng/mL. The IC50 in [1] stood at 0.012 µM. Moreover, the half-life is 2.9 h in [11], 0.317 h in data set [4] and 1.88 h in data set [8]. For the same molecule, the figures for the bioavailability in [12] and in data set [6] were 67% and 20%, respectively.
As for `OC[C@@H]1CCCN1Cc1ccc(Nc2nc3ncnc(Nc4ccc(F)c(Cl)c4)c3s2)cc1`, the solubility was below 0.2 µg/mL in data set [2] and 360 µg/mL (≈ 742 µM) in data set [5]. This molecule also returned an AUC in data set [3] of 24 ng·h/mL. Also, the half-life in data set [4] is above 1.67 h. In data set [6], the bioavailability came out at 0.3%. This molecule also showed a Cmax in data set [7] of 2.4 ng/mL.
Regarding `CN(C)Cc1ccc(Nc2nc3ncnc(Nc4ccc(F)c(Cl)c4)c3s2)cc1`, the results for the solubility in [2] and in data set [5] were 27 µg/mL (≈ 62.9 µM) and 390 µg/mL (≈ 909 µM), respectively. The molecule further returned an AUC in [3] of 322 ng·h/mL. Also, the half-life is above 1.67 h in data set [4] and 3.2 h in [8]. Besides, in data set [6], the bioavailability came out at 9%. Also, the peak level in [7] (Cmax) was 54 ng/mL.
As for `NS(=O)(=O)c1ccc(Nc2nc3ncnc(Nc4cccc(Cl)c4)c3s2)cc1`, the solubility in [2] and in [5] was below 0.2 µg/mL each time. In data set [3], this molecule returned an AUC of 224 ng·h/mL. The midpoint of inhibition in data set [1], the IC50, lay at 0.007 µM. Moreover, the half-life in data set [4] is above 1.67 h. Further, the bioavailability in data set [6] was 0.8%. In data set [7], the Cmax is 39 ng/mL.
For the molecule `NS(=O)(=O)c1ccc(Nc2nc3ncnc(Nc4c(F)cccc4F)c3s2)cc1`, 19.8 µM corresponded to half-maximal inhibition in data set [13] (IC50).
